In ChEMBL document CHEMBL1157036, “QSPR modeling of octanol/water partition coefficient of antineoplastic agents by balance of correlations” (Eur J Med Chem, 2010):

How the values were obtained:
[1] = physchem; details: octanol/water
[2] = octanol/water

Row | Structure (SMILES) | logP [1] | logP [2]
1 | N[C@@H](Cc1ccc(N(CCCl)CCCl)cc1)C(=O)O | 0.4 | 
2 | CN(C)c1nc(N(C)C)nc(N(C)C)n1 [ALTRETAMINE] | 1.7 | 
3 | NCC(=O)CCC(=O)O [AMINOLEVULINIC ACID] | -1.5 | 
4 | COc1cc(NS(C)(=O)=O)ccc1Nc1c2ccccc2nc2ccccc12 [AMSACRINE] | 3.8 | 
5 | O=C1CN2Cc3c(ccc(Cl)c3Cl)N=C2N1 [ANAGRELIDE] | 2.4 | 
6 | C=C(c1ccc(C(=O)O)cc1)c1cc2c(cc1C)C(C)(C)CCC2(C)C [BEXAROTENE] | 6.9 | 
7 | CS(=O)(=O)OCCCCOS(C)(=O)=O [BUSULFAN] | -0.3 | 
8 | CCCCCOC(=O)Nc1nc(=O)n([C@@H]2O[C@H](C)[C@@H](O)[C@H]2O)cc1F [CAPECITABINE] | 0.4 | 
9 | Cc1ccc(-c2cc(C(F)(F)F)nn2-c2ccc(S(N)(=O)=O)cc2)cc1 [CELECOXIB] | 3.9 | 
10 | O=C(O)CCCc1ccc(N(CCCl)CCCl)cc1 [CHLORAMBUCIL] | 3.9 | 
11 | Nc1nc(Cl)nc2c1ncn2[C@@H]1O[C@H](CO)[C@@H](O)[C@@H]1F [CLOFARABINE] | 0 | 
12 | O=P1(N(CCCl)CCCl)NCCCO1 (configuration not stated) [CYCLOPHOSPHAMIDE ANHYDROUS] | 0.8 | 
13 | CN(C)/N=N/c1[nH]cnc1C(N)=O [DACARBAZINE] |  | -1.6
14 | COc1cccc2c1C(=O)c1c(O)c3c(c(O)c1C2=O)C[C@@](O)(C(C)=O)C[C@@H]3O[C@H]1C[C@H](N)[C@H](O)[C@H](C)O1 [DAUNORUBICIN] | 0.1 | 
15 | COc1cccc2c1C(=O)c1c(O)c3c(c(O)c1C2=O)C[C@@](O)(C(=O)CO)C[C@@H]3O[C@H]1C[C@H](N)[C@H](O)[C@H](C)O1 [DOXORUBICIN] | -0.5 | 
16 | COc1cccc2c1C(=O)c1c(O)c3c(c(O)c1C2=O)C[C@@](O)(C(=O)CO)C[C@@H]3O[C@H]1C[C@H](N)[C@@H](O)[C@H](C)O1 [EPIRUBICIN] | -0.5 | 
17 | C[C@]12CC[C@@H]3c4ccc(OC(=O)N(CCCl)CCCl)cc4CC[C@H]3[C@@H]1CC[C@@H]2O [ESTRAMUSTINE] | 5.7 | 
18 | Nc1nc(F)nc2c1ncn2[C@@H]1O[C@H](CO)[C@@H](O)[C@@H]1O [FLUDARABINE] | -2.8 | 
19 | O=c1[nH]cc(F)c(=O)[nH]1 [FLUOROURACIL] | -0.8 | 
20 | Nc1ccn([C@@H]2O[C@H](CO)[C@@H](O)C2(F)F)c(=O)n1 [GEMCITABINE] | -1.4 | 
21 | CC(=O)[C@]1(O)Cc2c(O)c3c(c(O)c2[C@@H](O[C@H]2C[C@H](N)[C@H](O)[C@H](C)O2)C1)C(=O)c1ccccc1C3=O [IDARUBICIN] | 0.2 | 

Row | Structure (SMILES) | logP [1] | logP [2]
22 | O=P1(NCCCl)OCCCN1CCCl (configuration not stated) [IFOSFAMIDE] | 0.8 | 
23 | O=NN(CCCl)C(=O)NC1CCCCC1 [LOMUSTINE] | 3 | 
24 | Sc1ncnc2nc[nH]c12 [MERCAPTOPURINE ANHYDROUS] | -0.4 | 
25 | CN(Cc1cnc2nc(N)nc(N)c2n1)c1ccc(C(=O)N[C@@H](CCC(=O)O)C(=O)O)cc1 [METHOTREXATE] | -2.2 | 
26 | COC(=O)CCC(=O)CN [METHYL AMINOLEVULINATE] | -1.2 | 
27 | Clc1ccc(C(c2ccccc2Cl)C(Cl)Cl)cc1 (configuration not stated) [MITOTANE] | 6 | 
28 | O=C1c2c(O)ccc(O)c2C(=O)c2c(NCCNCCO)ccc(NCCNCCO)c21 [MITOXANTRONE] | -3.1 | 
29 | CC(=O)O[C@H]1C(=O)[C@@]2(C)[C@H]([C@H](OC(=O)c3ccccc3)[C@]3(O)C[C@H](OC(=O)[C@H](O)[C@@H](NC(=O)c4ccccc4)c4ccccc4)C(C)=C1C3(C)C)[C@]1(OC(C)=O)CO[C@@H]1C[C@@H]2O [PACLITAXEL] | 3 | 
30 | Nc1nc2[nH]cc(CCc3ccc(C(=O)N[C@@H](CCC(=O)O)C(=O)O)cc3)c2c(=O)[nH]1 [PEMETREXED] |  | -1.5
31 | OC[C@H]1O[C@@H](n2cnc3c2NC=NC[C@H]3O)C[C@@H]1O [PENTOSTATIN] | -1.1 | 
32 | O=C(CCBr)N1CCN(C(=O)CCBr)CC1 [PIPOBROMAN] | 1.1 | 
33 | Cc1nc2ccc(CN(C)c3ccc(C(=O)N[C@@H](CCC(=O)O)C(=O)O)s3)cc2c(=O)[nH]1 [RALTITREXED] | -1.2 | 
34 | CN(N=O)C(=O)N[C@@H](C=O)[C@@H](O)[C@H](O)[C@H](O)CO [STREPTOZOCIN] | -1.7 | 
35 | Cn1nnc2c(C(N)=O)ncn2c1=O [TEMOZOLOMIDE] |  | -2.8
36 | COc1cc([C@@H]2c3cc4c(cc3[C@@H](O[C@@H]3O[C@@H]5CO[C@@H](c6cccs6)O[C@H]5[C@H](O)[C@H]3O)[C@H]3COC(=O)[C@H]23)OCO4)cc(OC)c1O [TENIPOSIDE] |  | 1.5
37 | Nc1nc2nc[nH]c2c(=S)[nH]1 [THIOGUANINE] | -0.7 | 
38 | CC[C@@]1(O)C(=O)OCc2c1cc1n(c2=O)Cc2cc3c(CN(C)C)c(O)ccc3nc2-1 [TOPOTECAN] | 0.8 | 
39 | CCCCC(=O)OCC(=O)[C@]1(O)Cc2c(O)c3c(c(O)c2[C@@H](O[C@H]2C[C@H](NC(=O)C(F)(F)F)[C@H](O)[C@H](C)O2)C1)C(=O)c1c(OC)cccc1C3=O [VALRUBICIN] | 2.2 | 
40 | CC[C@]1(O)C[C@@H]2CN(CCc3c([nH]c4ccccc34)[C@@](C(=O)OC)(c3cc4c(cc3OC)N(C)[C@H]3[C@@](O)(C(=O)OC)[C@H](OC(C)=O)[C@]5(CC)C=CCN6CC[C@]43[C@@H]65)C2)C1 [VINBLASTINE] |  | 3.9
41 | CC[C@]1(O)C[C@@H]2CN(CCc3c([nH]c4ccccc34)[C@@](C(=O)OC)(c3cc4c(cc3OC)N(C)[C@H]3[C@@](O)(C(N)=O)[C@H](O)[C@]5(CC)C=CCN6CC[C@]43[C@@H]65)C2)C1 [VINDESINE] | 2.9 | 
42 | CCC1=C[C@@H]2CN(C1)Cc1c([nH]c3ccccc13)[C@@](C(=O)OC)(c1cc3c(cc1OC)N(C)[C@H]1[C@@](O)(C(=O)OC)[C@H](OC(C)=O)[C@]4(CC)C=CCN5CC[C@]31[C@@H]54)C2 [VINORELBINE] | 4 | 
